In experiment [1] the test system is Influenza Virus A's Neuraminidase. Put plainly: Neuraminidase activity of cell-free virus, 4-methylumbelliferyl N-acetylneuramic acid substrate.
Excerpt: The method of these experiments are well known in the art, however, in brief, cell free virus are mixed with an equal volume of the composition in Table 1 or Ascorbic Acid in another, at various concentrations, and any inhibitory activity is observed at various time points after the mixture. Spectrophotometer assay for Neuraminidase has been established in the laboratory at using 4-methylumbelliferyl N-acetylneuramic acid as a substrate in the cell free system.
Experiment [2] relates to human influenza A virus (VR-1520). It counts as cell-based. To be noted: for output of Antigen to the control's output: Vero cells, control 245 Antigen units/ml.

Where two headings read alike, the source gives them in different places.

For the molecule `O=C1O[C@H]([C@@H](O)CO)C(O)=C1O` [ascorbic acid], the “Neuraminidase activity to the control's” value was determined as 90% in experiment [1] (1000 microgram/ml), 85% in experiment [1] (2000 microgram/ml) and 80% in experiment [1] (3000 microgram/ml). Also, the entries for the “output of Antigen to the control's output” value in experiment [2] (50 micromoles), in experiment [2] (100 micromoles) and in experiment [2] (250 micromoles) were 35%, 45% and 41%, respectively. For the same molecule, the “Influenza A virus antigen production in Vero cells (figure legend)” value in experiment [2] (various concentrations, serum-free medium) was “marginal decrease”.
